Series [1] deals with T. b. brucei 427WT bloodstream trypomastigotes. The experiment in a line: microbe, parasite or virus in culture. It counts as cell-based, Trypanosoma brucei brucei. The note with it: for EC50: Trypanosoma brucei; for SI, selectivity index=EC50(HFF)/EC50(T. b. b. WT): HFF versus T. b. b. 427WT; for RF, resistance factor (+ 5 mM glycerol versus control): Table 2. How it is done: (§1) Organisms and culture media: Only bloodstream trypomastigotes of T. b. brucei were used throughout this study. […] Parasites were cultured in vented flasks at 37 °C and 5 % CO2 atmosphere and they were passaged every 3 days. Bloodstream forms of T. congolense savannah‐type strain IL3000 were cultured in basal MEM medium, supplemented by 10 % fresh goat serum, 14 μL of β‐mercaptoethanol, 800 μL of 200 mM glutamine solution, and 10 mL of penicillin/streptomycin solution per liter of medium (pH 7.3).48 T. congolense were cultured in six‐well plates at 34 °C and 5 % CO2.
(§2) In brief, the assays were performed in 96‐well plates with 2×10^5 cells per well for T. b. brucei or 5×10^5 cells per well for T. congolense, in their respective culture media. First, 200 μL of test compounds’ solutions (400 μM, in T. brucei or T. congolense medium as appropriate) was added to the first well of each 12‐well row, from which doubling dilutions were conducted over one row per test compound. […] Fluorescence was detected using a FLUOstar Optima (BMG Labtech, Durham, NC, USA) at wavelength of 540 nm (excitation), 590 nm (emission). EC50 values were calculated by nonlinear regression using an equation for a sigmoidal dose–response curve with variable slope using Prism 5.0 (GraphPad Software Inc., San Diego, CA, USA).

In the next series the target is T. brucei GAPDH (Trypanosoma brucei brucei, UniProt P22512). The experiment in a line: Inhibition of T. brucei GAPDH. It counts as biochemical. The note with it: fixed concentration of 10 μM; data not shown; read-out: decrease of GAPDH activity. The text has this: […]. […] Limitations of solubility prevented us from testing the series at higher concentrations. However, it must be noted that we cannot exclude the possibility of a low‐affinity inhibition of GAPDH contributing to the trypanocidal effect, as compounds may accumulate to relatively high concentrations within the parasite.

Series [2] has as its system T. b. brucei aqp2/aqp3‐KO. Nature of the series: microbe, parasite or virus in culture. It counts as cell-based, Trypanosoma brucei brucei. The conditions noted are these: for EC50: Trypanosoma brucei, read-out: EC50 T. b. b. aqp2/aq3‐KO; for RF, resistance factor relative to WT (aqp2/aqp3-KO): aqp2/aqp3-KO versus 427WT. How it is done: as §1, §2
The subject of a further series is T. b. brucei B48. Nature of the series: microbe, parasite or virus in culture. It counts as cell-based, Trypanosoma brucei brucei. The note with it: for RF, resistance factor relative to WT (B48): B48 versus 427WT; for EC50: Trypanosoma brucei, read-out: EC50 T. b. b. B48. How it is done: as §1, §2
In series [3] the test system is T. b. brucei 427WT trypomastigotes. Nature of the series: Growth curve / time-to-kill determination. The note with it: 1× EC50; for time to sterilize the culture: 427WT seeded at 1×10^5 cells/mL. It is filed as cell-based, Trypanosoma brucei brucei. As for the experimental part: To determine whether 18–22 inhibited growth or cell division rather than causing cell death of T. b. brucei, cell growth curves were performed by treating 427WT trypomastigotes with concentrations corresponding to 0.5×, 1×, and 2× the EC50 value, using untreated cells as a control. Incubation with test compounds at half the EC50 (Figure 3 A) caused mostly some delayed growth phenotype, with rates increasing after 10 or 20 h. […] At double the concentration (Figure 3 C), all the hybrids cleared the culture between the 4 h and 8 h time points, with the cell populations rapidly declining between 2 and 4 h.
Untreated parasites, used as control, were grown in parallel. The cells were counted by using hemocytometer cell counter (cell count/mL×10^4) at 0, 2, 4, 8, 12, 24, 28, 32, 36, 48 h of incubation. Each experiment was performed as two independent replicates, and each sample was counted at least twice.

Series [4] can be described thus: Cytotoxicity assay on human foreskin fibroblast (HFF), resazurin. The conditions noted are these: human foreskin fibroblast (HFF) cells, tested up to 200 μM, read-out: HFF cytotoxic activity (EC50). It counts as cell-based. As for the experimental part:
Cytotoxicity assay on human foreskin fibroblast (HFF): Toxicity of test compounds to mammalian cells was carried out using the resazurin assay previously described31 with slight modifications as follows. HFF cells were grown in a culture medium containing 500 mL of Dulbecco's modified Eagle's medium (DMEM; Sigma), 50 mL newborn calf serum (NBCS; Gibco), 5 mL penicillin/streptomycin (Gibco), and 5 mL of L‐Glutamax ([…], Gibco), at 37 °C and 5 % CO2 in vented flasks and passaged at 80–85 % of confluence. For the cytotoxicity assay, cells were suspended at 3×10^5 cells mL^−1 and 100 μL aliquots were added to each well of a 96‐well plate. The plate was incubated at 37 °C and 5 % CO2 for 24 h to allow cell adhesion. Serial test compounds dilution was performed in a different 96‐well plate and 100 μL of each dilution was transferred to each well containing cells, resulting in exposure of cells to 200–0.2 μM of test compound. Phenylarsine oxide (Sigma–Aldrich) was used as positive control and drug‐free incubation as negative control. The plates were incubated at 37 °C and 5 % CO2 for an additional 30 h, at which point 10 μL of resazurin solution ([…] in PBS) was added, followed by a final incubation for 24 h. The plates were read and the data analyzed as described above for the trypanosome assay.
In general terms: Resazurin is reduced to fluorescent resorufin, in cell work by metabolically active cells.

The test system of another series is T. congolense IL3000 WT. The experiment in a line: In vitro drug susceptibility assay (resazurin), T. congolense. It counts as cell-based. The note with it: bloodstream forms, read-out: EC50 T. c. IL3000 WT. How it is done: as §1, §2
Setting [5] is: 72 h, bloodstream trypomastigotes, resazurin, 48 h + 24 h, n=4, read-out: EC50 T. b. b. 427WT.
Setting [6] is: Table 2, 5 mM glycerol in medium, average±SEM of three, read-out: EC50 s427WT + 5 mM glycerol.
The mark [7] stands for this setting: Table 2, no glycerol, average±SEM of three, read-out: EC50 Control s427WT.

Read-outs that look alike come from different tables or passages of the source. A value given as a limit tells only on which side of the number the result lay.

T. brucei GAPDH, sequence (P22512 whole entry): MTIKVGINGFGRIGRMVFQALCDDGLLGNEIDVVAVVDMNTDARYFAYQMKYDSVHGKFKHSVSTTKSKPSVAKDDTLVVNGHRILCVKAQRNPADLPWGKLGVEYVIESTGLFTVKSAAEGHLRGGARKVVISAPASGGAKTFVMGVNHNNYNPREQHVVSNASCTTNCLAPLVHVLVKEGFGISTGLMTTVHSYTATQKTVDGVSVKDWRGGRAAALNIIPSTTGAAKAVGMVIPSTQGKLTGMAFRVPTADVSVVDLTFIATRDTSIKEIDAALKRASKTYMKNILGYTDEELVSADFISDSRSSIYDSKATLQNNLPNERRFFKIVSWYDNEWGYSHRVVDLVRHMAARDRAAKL

`CCCCCCCCCCCCCCCc1cccc(OC2=CC(=O)c3ccccc3C2=O)c1C(=O)OC` [Compound 8, Methyl 2‐((1,4‐dioxo‐1,4‐dihydronaphthalen‐2‐yl)oxy)‐6‐pentadecylbenzoate]: the EC50 in series [1] (setting [5]) was above 200 µM. In addition, the inhibition at 10 µM on T. brucei GAPDH was below 15%.

Take `CCCCCCCCCCCCCCCc1cccc(OC2=CC(=O)c3cccc(OC)c3C2=O)c1C(=O)OC` [Compound 9, Methyl 2‐((8‐methoxy‐1,4‐dioxo‐1,4‐dihydronaphthalen‐2‐yl)oxy)‐6 pentadecylbenzoate]: the EC50 in series [1] (setting [5]) is above 200 µM. The inhibition at 10 µM at T. brucei GAPDH was below 15%.

For the molecule `CCCCCCCCCCCCCCCc1cccc(OC2=CC(=O)c3c(OC)cccc3C2=O)c1C(=O)OC` [Compound 10, Methyl 2‐((5‐methoxy‐1,4‐dioxo‐1,4‐dihydronaphthalen‐2‐yl)oxy)‐6‐pentadecylbenzoate], the EC50 in series [1] (setting [5]) was above 200 µM. In addition, the inhibition at 10 µM at T. brucei GAPDH was below 15%.

Turning to `CCCCCCCCCCCCCCCc1cccc(OC2=CC(=O)c3cccc(O)c3C2=O)c1C(=O)OC` [Compound 11, Methyl 2‐((8‐hydroxy‐1,4‐dioxo‐1,4‐dihydronaphthalen‐2‐yl)oxy)‐6‐pentadecylbenzoate], the EC50 in series [1] (setting [5]) was above 200 µM. The inhibition at 10 µM on T. brucei GAPDH is below 15%.

As to `CCCCCCCCCCCCCCCc1cccc(OC2=CC(=O)c3c(O)cccc3C2=O)c1C(=O)OC` [Compound 12, Methyl 2‐((5‐hydroxy‐1,4‐dioxo‐1,4‐dihydronaphthalen‐2‐yl)oxy)‐6‐pentadecylbenzoate], the EC50 in series [1] (setting [5]) is above 200 µM. The inhibition at 10 µM on T. brucei GAPDH is below 15%.

For the molecule `CCCCCCCCCCCCCCCc1cccc(OC2=CC(=O)c3ccccc3C2=O)c1` [Compound 13, 2‐(3‐Pentadecylphenoxy)naphthalene‐1,4‐dione], the EC50 in series [1] (setting [5]) is above 200 µM. Also, the inhibition at 10 µM at T. brucei GAPDH was below 15%.

In the case of `CCCCCCCCCCCCCCCc1cccc(OC2=CC(=O)c3cccc(OC)c3C2=O)c1` [Compound 14, 8‐Methoxy‐2‐(3‐pentadecylphenoxy)naphthalene‐1,4‐dione], the EC50 in series [1] (setting [5]) was above 200 µM. The inhibition at 10 µM at T. brucei GAPDH is below 15%.

With `CCCCCCCCCCCCCCCc1cccc(OC2=CC(=O)c3c(OC)cccc3C2=O)c1` [Compound 15, 5‐Methoxy‐2‐(3‐pentadecylphenoxy)naphthalene‐1,4‐dione], in series [1] (setting [5]), the EC50 was above 200 µM. In addition, the inhibition at 10 µM at T. brucei GAPDH is below 15%.

`CCCCCCCCCCCCCCCc1cccc(OC2=CC(=O)c3cccc(O)c3C2=O)c1` [Compound 16, 8‐Hydroxy‐2‐(3‐pentadecylphenoxy)naphthalene‐1,4‐dione]: the EC50 in series [1] (setting [5]) was above 200 µM. Also, on T. brucei GAPDH, the inhibition at 10 µM is below 15%.

On to `CCCCCCCCCCCCCCCc1cccc(OC2=CC(=O)c3c(O)cccc3C2=O)c1` [Compound 17, 5‐Hydroxy‐2‐(3‐pentadecylphenoxy)naphthalene‐1,4‐dione], for which the EC50 in series [1] (setting [5]) is above 200 µM. The inhibition at 10 µM at T. brucei GAPDH is below 15%.

As to `O=C1C=C(Oc2cccc(CCCCCCCCO)c2)C(=O)c2ccccc21` [Compound 18, 2‐(3‐(8‐Hydroxyoctyl)phenoxy)naphthalene‐1,4‐dione], the EC50 is 10.1 ± 2.2 µM in series [2]; 9.1 ± 1.4 µM in series [1] (setting [5]); 31.2 ± 0.6 µM in series [1] (setting [6]); 30 ± 0.08 µM in series [1] (setting [7]); 8.6 ± 2.4 µM in the series on T. b. brucei B48. For the same molecule, the “RF, resistance factor relative to WT (aqp2/aqp3-KO)” value in series [2] was 1.1. For the same molecule, the “SI, selectivity index=EC50(HFF)/EC50(T. b. b. WT)” value in series [1] is listed as above 21.98. In series [1], the “RF, resistance factor (+ 5 mM glycerol versus control)” value worked out at 1.04. For the same molecule, the “RF, resistance factor relative to WT (B48)” value in the series with T. b. brucei B48 is 0.95. Further, the “time to sterilize the culture” value in series [3] was found to be 2 h. In addition, the EC50 at 54 h in series [4] was above 200 µM. The inhibition at 10 µM at T. brucei GAPDH was below 15%.

For the molecule `COc1cccc2c1C(=O)C(Oc1cccc(CCCCCCCCO)c1)=CC2=O` [Compound 19, 2‐(3‐(8‐Hydroxyoctyl)phenoxy)‐8‐methoxynaphthalene‐1,4‐dione], the EC50 in series [2] came out at 17.7 ± 1.5 µM; in series [1] (setting [5]), 15 ± 1.3 µM; in series [1] (setting [6]), 16.3 ± 0.4 µM; in series [1] (setting [7]), 16.8 ± 0.06 µM; in the series with T. b. brucei B48 it was 14.6 ± 1.7 µM. Further, the “RF, resistance factor relative to WT (aqp2/aqp3-KO)” value in series [2] was 1.2. In series [1], the “SI, selectivity index=EC50(HFF)/EC50(T. b. b. WT)” value is recorded as above 13.3. In series [1], the “RF, resistance factor (+ 5 mM glycerol versus control)” value amounted to 0.97. Moreover, the “RF, resistance factor relative to WT (B48)” value in the series with T. b. brucei B48 is recorded as 0.98. Besides, the “time to sterilize the culture” value in series [3] is given as 8 h. For the same molecule, the EC50 at 54 h in series [4] is above 200 µM. Moreover, at T. brucei GAPDH, the inhibition at 10 µM was below 15%.

As to `O=C1C=C(Oc2cccc(CCCCCCCCO)c2)C(=O)c2c(O)cccc21` [Compound 21, 8‐Hydroxy‐2‐(3‐(8‐hydroxyoctyl)phenoxy)naphthalene‐1,4‐dione], in series [2], the EC50 worked out at 46.7 ± 7.7 µM and the “RF, resistance factor relative to WT (aqp2/aqp3-KO)” value is 1.2. The “SI, selectivity index=EC50(HFF)/EC50(T. b. b. WT)” value in series [1] is above 5. Further, the EC50 in series [1] (setting [5]) came out at 40.5 ± 4.9 µM. Moreover, in the series on T. b. brucei B48, the “RF, resistance factor relative to WT (B48)” value was 0.91 and the EC50 turned out to be 36.9 ± 5.3 µM. Moreover, in series [3] (over 48 h), the “effect on cell growth” value is reported as “decreased the growth rate substantially, with a nearly trypanostatic effect over the first 12 h”. Further, the EC50 at 54 h in series [4] is above 200 µM. For the same molecule, at T. brucei GAPDH, the inhibition at 10 µM is below 15%.

Turning to `N=C(N)c1ccc(N=NNc2ccc(C(=N)N)cc2)cc1` [DA, Diminazene aceturate, reference compound], the EC50 in the series with T. congolense IL3000 WT was 0.17 ± 0.0003 µM.

With `N=C(N)c1ccc(OCCCCCOc2ccc(C(=N)N)cc2)cc1` [PMD, Pentamidine, reference compound], in series [2], the EC50 was 0.2 ± 0.01 µM and the “RF, resistance factor relative to WT (aqp2/aqp3-KO)” value is given as 22.0. Also, the EC50 in series [1] (setting [5]) was found to be 0.0093 ± 0.0001 µM. In the series with T. b. brucei B48, the “RF, resistance factor relative to WT (B48)” value was determined as 339 and the EC50 is 3.1 ± 0.7 µM.

Source of the values: publication PMC6686156, “Discovery of Sustainable Drugs for Neglected Tropical Diseases: Cashew Nut Shell Liquid (CNSL)‐Based Hybrids Target Mitochondrial Function and ATP Production in Trypanosoma brucei” (Chemmedchem, 2019).
